The subject of test [1] is naïve human CD8 T cells. The experiment in a line: Human CD8 T cells IFN-γ assay.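 Also: Naïve human CD8 T cells stimulated with plate-bound anti-CD3 and soluble anti-CD28, IFN-γ in supernatant quantified by AlphaLISA and converted to pg/mL.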 Format: cell-based. The settings on record: normalized to 3 μM reference compound with anti-CD3 plus anti-CD28 as 100% activation, read-out: HuCD8 INFG Normalized EC50.
Test [2] deals with T1, human DGKα (Homo sapiens, UniProt P23743).
T1 construct: TVMV protease cleavage site (C); Hexa-His (C); made in house; host or cells: Sf9 insect cells (baculovirus, Bac-to-Bac)
The experiment in a line: DGKα LIPGLO assay (extruded liposome substrate), in vitro DGK inhibition. The format is biochemical. The note with it: liposome (LIPGLO) assay; read-out: DGKa LIPGLO IC50.

Test [3] deals with T2, human DGKζ (Homo sapiens, UniProt Q13574).
T2 construct: TVMV protease cleavage site (C); Hexa-His (C); made in house; host or cells: Sf9 insect cells (baculovirus, Bac-to-Bac)
The experiment in a line: DGKζ LIPGLO assay (extruded liposome substrate), in vitro DGK inhibition. The settings on record: liposome (LIPGLO) assay; read-out: DGKz LIPGLO IC50. Format: biochemical.

Test [4] has as its system Human venous whole blood. Nature of the test: Human whole blood IFN-γ assay.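 Also: blood from healthy donors exposed to compound for 1 h before stimulation with anti-CD3 and anti-CD28 at 1 µg/mL each, IFN-γ quantified in supernatant by AlphaLISA.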 Format: cell-based. The settings on record: Homo sapiens, 24 h, human whole blood; normalized to 3 μM reference compound with anti-CD3 plus anti-CD28 as 100% activation; read-out: INFg Whole Blood Normalized Agonist EC50.
Experimental: Human Whole Blood IFN-γ Assay
Human venous whole blood (22.5 μL per well), obtained from healthy donors, was pre-treated with compounds for one hour at 37° C. in a humidified 95% air/5% CO2 incubator. The blood was stimulated with 2.5 μL anti-human CD3 and anti-CD28 mAb at a final concentration of 1 μg/mL each for 24 hours at 37° C. IFN-γ in the supernatants was measured using AlphLISA kit (Cat # AL217).

Structures are written as SMILES. Where two headings read alike, the source gives them in different places. Some results are limits rather than exact numbers.

For 17 compounds, EC50 and IC50 results are on record in patent US10669272B2, “Substituted naphthyridinone compounds useful as T cell activators” (BRISTOL-MYERS SQUIBB COMPANY, priority 2018, dated 2020).

The EC50 is the concentration needed to bring the measured effect to its halfway point. The IC50 is the concentration that gives 50% inhibition.

T1 sequence (P23743 with tags, fused parts or gaps): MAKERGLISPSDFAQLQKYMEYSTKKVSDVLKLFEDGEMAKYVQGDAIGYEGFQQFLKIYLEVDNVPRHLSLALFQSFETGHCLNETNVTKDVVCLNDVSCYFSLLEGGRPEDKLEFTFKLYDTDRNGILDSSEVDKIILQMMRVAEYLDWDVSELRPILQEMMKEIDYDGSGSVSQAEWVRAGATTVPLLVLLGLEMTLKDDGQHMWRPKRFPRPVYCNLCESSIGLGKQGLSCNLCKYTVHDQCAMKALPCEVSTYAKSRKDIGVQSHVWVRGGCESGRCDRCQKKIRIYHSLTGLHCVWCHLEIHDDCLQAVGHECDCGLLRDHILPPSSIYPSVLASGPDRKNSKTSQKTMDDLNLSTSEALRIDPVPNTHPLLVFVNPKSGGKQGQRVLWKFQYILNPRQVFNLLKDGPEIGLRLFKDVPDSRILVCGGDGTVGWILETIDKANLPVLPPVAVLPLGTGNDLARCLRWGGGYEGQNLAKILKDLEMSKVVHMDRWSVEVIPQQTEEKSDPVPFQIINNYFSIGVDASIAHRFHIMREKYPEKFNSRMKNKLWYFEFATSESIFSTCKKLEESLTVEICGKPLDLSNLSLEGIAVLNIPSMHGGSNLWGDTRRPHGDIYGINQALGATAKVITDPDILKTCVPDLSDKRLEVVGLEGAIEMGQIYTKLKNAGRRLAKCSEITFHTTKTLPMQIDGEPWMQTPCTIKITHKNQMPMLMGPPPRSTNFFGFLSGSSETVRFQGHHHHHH
T2 sequence (Q13574 with tags, fused parts or gaps isoform Q13574-4): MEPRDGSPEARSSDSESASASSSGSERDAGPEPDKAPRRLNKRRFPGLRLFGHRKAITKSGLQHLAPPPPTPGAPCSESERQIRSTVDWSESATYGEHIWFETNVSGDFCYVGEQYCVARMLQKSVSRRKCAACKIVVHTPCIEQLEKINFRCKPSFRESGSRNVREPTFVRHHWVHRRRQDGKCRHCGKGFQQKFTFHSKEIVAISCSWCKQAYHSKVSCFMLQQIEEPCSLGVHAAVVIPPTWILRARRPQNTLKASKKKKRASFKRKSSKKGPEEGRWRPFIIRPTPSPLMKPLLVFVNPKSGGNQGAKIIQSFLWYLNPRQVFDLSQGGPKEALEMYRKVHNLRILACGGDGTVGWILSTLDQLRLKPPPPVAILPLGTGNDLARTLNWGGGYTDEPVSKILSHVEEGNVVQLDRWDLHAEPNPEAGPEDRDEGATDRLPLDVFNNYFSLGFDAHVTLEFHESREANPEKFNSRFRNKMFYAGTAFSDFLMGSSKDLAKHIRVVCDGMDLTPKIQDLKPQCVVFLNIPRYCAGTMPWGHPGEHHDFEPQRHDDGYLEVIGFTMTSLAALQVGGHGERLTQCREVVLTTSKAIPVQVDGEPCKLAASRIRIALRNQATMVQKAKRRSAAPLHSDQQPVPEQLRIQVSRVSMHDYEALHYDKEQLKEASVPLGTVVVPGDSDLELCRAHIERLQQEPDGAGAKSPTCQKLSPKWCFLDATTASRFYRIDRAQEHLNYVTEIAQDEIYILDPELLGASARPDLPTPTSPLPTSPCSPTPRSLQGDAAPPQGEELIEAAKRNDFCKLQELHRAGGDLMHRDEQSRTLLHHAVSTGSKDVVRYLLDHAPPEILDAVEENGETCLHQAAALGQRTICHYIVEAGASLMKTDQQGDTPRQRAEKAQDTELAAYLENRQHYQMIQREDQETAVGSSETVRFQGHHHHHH

Take `Cn1c(=O)c(C#N)c(N2CCN(C(c3ccc(F)cc3)c3ccc(F)cc3)C(C(=O)NC3CC3)C2)c2nc(C#N)ccc21` (single isomer, unassigned) [Example 61, 1-(bis(4-fluorophenyl)methyl)-N-cyclopropyl-4-(3,6-dicyano-1-methyl-2-oxo-1,2-dihydro-1,5-naphthyridin-4-yl)piperazine-2-carboxamide]: in test [1], the EC50 came out at 10000 nM. In addition, the IC50 was 240 µM in test [2] and 170 µM in test [3].

With `Cn1c(=O)cc(N2CCN(C(c3ccc(F)cc3)c3ccc(F)cc3)CC2CF)c2nc(C#N)ccc21` (single isomer, unassigned) [Example 151, 8-(4-(bis(4-fluorophenyl)methyl)-2-(fluoromethyl)piperazin-1-yl)-5-methyl-6-oxo-5,6-dihydro-1,5-naphthyridine-2-carbonitrile], the EC50 in test [1] stood at 150 nM. Further, the IC50 in test [2] came out at 3.6 µM; in test [3] it was 8.8 µM.

With `C[C@@H]1CN(c2c(C#N)c(=O)n(C)c3ccc(Br)nc23)[C@@H](C)CN1C(c1ccc(F)cc1)c1ccc(F)cc1` [Example 158, 4-((2S,5R)-4-(bis(4-fluorophenyl)methyl)-2,5-dimethylpiperazin-1-yl)-6-bromo-1-methyl-2-oxo-1,2-dihydro-1,5-naphthyridine-3-carbonitrile], the EC50 in test [1] (Homo sapiens, T-cell, 20 h) was 110 nM. In addition, the figures for the IC50 in test [2] and in test [3] were 3.6 µM and 13 µM, respectively.

As to `Cn1c(=O)c(C#N)c(N2CCN(C(c3ccc(F)cc3)c3ccc(F)cc3)C(C(=O)O)C2)c2nc(C#N)ccc21` (single isomer, unassigned) [Example 53, 1-(bis(4-fluorophenyl)methyl)-4-(3,6-dicyano-1-methyl-2-oxo-1,2-dihydro-1,5-naphthyridin-4-yl)piperazine-2-carboxylic acid], in test [1] (Homo sapiens, T-cell, 20 h), the EC50 came out at 10000 nM. Besides, the IC50 is 140 µM in test [2] and 94 µM in test [3].

Take `COC(=O)C1CN(C(c2ccc(F)cc2)c2ccc(F)cc2)CCN1c1cc(=O)n(C)c2ccc(C#N)nc12` (single isomer, unassigned) [Example 137, Methyl 4-(bis(4-fluorophenyl)methyl)-1-(6-cyano-1-methyl-2-oxo-1,2-dihydro-1,5-naphthyridin-4-yl)piperazine-2-carboxylate]: the EC50 in test [1] turned out to be 1500 nM. Besides, the IC50 is 240 µM in test [2] and 33 µM in test [3].

Take `Cn1c(=O)cc(N2CCN(C(c3ccc(F)cc3)c3ccc(F)cc3)CC2C(N)=O)c2nc(C#N)ccc21` (single isomer, unassigned) [Example 142, 4-(bis(4-fluorophenyl)methyl)-1-(6-cyano-1-methyl-2-oxo-1,2-dihydro-1,5-naphthyridin-4-yl)piperazine-2-carboxamide]: in test [1] (Homo sapiens, T-cell, 20 h), the EC50 stood at 10000 nM. The results for the concentration for half-maximal inhibition (IC50) in test [2] and in test [3] were 40 µM and 65 µM, respectively.

Regarding `COC(=O)C1CN(c2c(F)c(=O)n(C)c3ccc(C#N)nc23)CCN1C(c1ccc(Cl)cc1)c1ccc(Cl)cc1` (single isomer, unassigned) [Example 95, methyl 1-(bis(4-chlorophenyl)methyl)-4-(6-cyano-3-fluoro-1-methyl-2-oxo-1,2-dihydro-1,5-naphthyridin-4-yl)piperazine-2-carboxylate], the EC50 in test [1] is 21 nM. The IC50 in test [2] was 2.6 µM; in test [3] it was 0.76 µM.

For `COc1ccc2c(n1)c(N1C[C@@H](C)N(C(c3ccccc3)c3ccc(F)cc3)C[C@@H]1C)cc(=O)n2C` (single isomer, unassigned) [Example 238], in test [1] (Homo sapiens, T-cell, 20 h), the EC50 came to 5000 nM. Further, the IC50 in test [2] is 17 µM; in test [3] it was 79 µM.

Regarding `Cn1c(=O)cc(N2CCN(C(c3ccc(F)cc3)c3ccc(F)cc3)CC2CF)c2nc(C#N)ccc21` (single isomer, unassigned) [Example 150, 8-(4-(bis(4-fluorophenyl)methyl)-2-(fluoromethyl)piperazin-1-yl)-5-methyl-6-oxo-5,6-dihydro-1,5-naphthyridine-2-carbonitrile], the EC50 in test [1] came to 10000 nM. The values for the IC50 in test [2] and in test [3] were 240 µM and 29 µM, respectively.

For the compound `Cn1c(=O)cc(N2CCN(C(c3ccc(F)cc3)c3ccc(F)cc3)CC2C#N)c2nc(C#N)ccc21` (single isomer, unassigned) [Example 144, 8-(4-(bis(4-fluorophenyl)methyl)-2-cyanopiperazin-1-yl)-5-methyl-6-oxo-5,6-dihydro-1,5-naphthyridine-2-carbonitrile], in test [1] (Homo sapiens, T-cell, 20 h), the EC50 is 1200 nM. Further, the IC50 in test [2] is 1.4 µM; in test [3] it was 2.4 µM.

With `COC(=O)C1CN(c2cc(=O)n(C)c3ccc(C#N)nc23)CCN1C(c1ccc(F)cc1)c1ccc(F)cc1OC` (single isomer, unassigned) [Example 68, Methyl 4-(6-cyano-1-methyl-2-oxo-1,2-dihydro-1,5-naphthyridin-4-yl)-1-((4-fluoro-2-methoxyphenyl)(4-fluorophenyl)methyl)piperazine-2-carboxylate], the EC50 in test [1] was 11 nM. For the same compound, the IC50 was found to be 18 µM in test [2] and 0.25 µM in test [3].

Turning to `Cn1c(=O)c(C#N)c(N2CCN(C(c3ccc(F)cc3)c3ccc(F)cc3)C(C(N)=O)C2)c2nc(C#N)ccc21` (single isomer, unassigned) [Example 57, 1-(bis (4-fluorophenyl)methyl)-4-(3,6-dicyano-1-methyl-2-oxo-1,2-dihydro-1,5-naphthyridin-4-yl)piperazine-2-carboxamide], the EC50 in test [1] (Homo sapiens, T-cell, 20 h) was determined as 6000 nM. In addition, the values for the IC50 in test [2] and in test [3] were 52 µM and 140 µM, respectively.

For the compound `COc1cc(F)ccc1C(c1ccc(F)cc1)N1C[C@H](C)N(c2c(C#N)c(=O)n(C)c3ccc(C#N)nc23)C[C@H]1C` (single isomer, unassigned) [Example 111], the EC50 in test [1] (Homo sapiens, T-cell, 20 h) is 73 nM. The figures for the IC50 in test [2] and in test [3] were 62 µM and 1.6 µM, respectively.

Regarding `Cn1c(=O)cc(N2CCN(C(c3ccc(F)cc3)c3ccc(F)cc3)CC2CO)c2nc(C#N)ccc21` (racemic) [Example 146, 8-(4-(bis(4-fluorophenyl)methyl)-2-(hydroxymethyl)piperazin-1-yl)-5-methyl-6-oxo-5,6-dihydro-1,5-naphthyridine-2-carbonitrile], the EC50 in test [1] (Homo sapiens, T-cell, 20 h) was 660 nM. Also, the IC50 in test [2] came out at 84 µM; in test [3], 14 µM.

For `CC[C@H]1CN(C(c2ccc(F)cc2)c2nc(C3CC3)cs2)[C@H](CC)CN1c1cc(=O)n(C)c2ccc(C#N)nc12` (stereo partly drawn) [Example 1067], in test [4], the EC50 came out at 11 nM. Besides, the IC50 was 0.079 µM in test [2] and 0.047 µM in test [3].

For the compound `CCC(c1ccc(OCC2CC2)cc1)N1C[C@H](C)N(c2cc(=O)n(C)c3ccc(C#N)nc23)C[C@H]1C` (stereo partly drawn) [Example 1439, 8-((2S,5R)-4-(1-(4-(cyclopropylmethoxy)phenyl)propyl)-2,5-dimethylpiperazin-1-yl)-5-methyl-6-oxo-5,6-dihydro-1,5-naphthyridine-2-carbonitrile], the EC50 in test [4] was determined as 250 nM. Besides, the IC50 in test [2] came out at 0.2 µM; in test [3], 0.65 µM.

As for `C[C@@H]1CN(c2cc(=O)n(C)c3ccc(C#N)nc23)[C@@H](C)CN1C(c1ccc(F)cc1)c1ccc(N2CCOCC2)cc1` (single isomer, unassigned) [Example 662], in test [4], the EC50 came to 20000 nM. Further, the IC50 in test [2] and in test [3] was over 250 µM in each case.
